{
  "source": "ChEMBL document CHEMBL1130144",
  "about": "“Ras farnesyltransferase: a new therapeutic target” (J Med Chem, 1997)",
  "key": {"[1]": {"target": "Protein farnesyltransferase (Mus musculus) (UniProt Q61239+Q8K2I1)", "assay": "Inhibition of Ras-processing in H-Ras transformed NIH3T3 fibroblasts", "format": "functional, cell-based"}, "[2]": {"target": "T1, Protein farnesyltransferase (Homo sapiens, UniProt P49354+P49356)", "assay": "Inhibitory activity against farnesyl pyrophosphate", "format": "protein-complex assay"}, "[3]": {"target": "T1, Protein farnesyltransferase", "assay": "Activity against Farnesyltransferase", "format": "protein-complex assay"}, "[4]": {"target": "Protein farnesyltransferase (Bos taurus, UniProt P29702+P49355)", "assay": "Activity against bovine Farnesyltransferase", "format": "protein-complex assay"}, "[5]": {"assay": "(§1) Activity against Geranylgeranyl transferase type I"}, "NIH3T3 [6]": {"test_system": "NIH3T3", "assay": "Inhibitory activity against Ha-Ras-transformed NIH3T3 cells", "format": "functional, Mus musculus"}, "[7]": {"target": "Geranylgeranyl transferase type I (Homo sapiens, UniProt P49354+P53609)", "assay": "as §1", "format": "protein-complex assay"}, "[8]": {"target": "Protein farnesyltransferase (Mus musculus, UniProt Q61239+Q8K2I1)", "assay": "Inhibition of Ras processing", "format": "functional"}, "[9]": {"target": "Protein farnesyltransferase (Rattus norvegicus, UniProt Q02293+Q04631)", "assay": "Activity against rat Farnesyltransferase", "format": "protein-complex assay"}, "NIH3T3 [10]": {"test_system": "NIH3T3", "assay": "Inhibition in clonogenic assay against H-Ras-transformed NIH3T3 cells", "format": "functional, cell-based", "settings": "Mus musculus"}, "[11]": {"assay": "Inhibition of K-Ras-transformed fibrosarcoma growth", "format": "functional"}, "[12]": {"target": "T1, Protein farnesyltransferase", "assay": "Activity against human Farnesyltransferase", "format": "protein-complex assay"}, "Mus musculus [13]": {"species": "Mus musculus", "assay": "Concentration causing regression of MMTV-v-Ras mice bearing palpable tumors", "format": "functional, organism-based"}, "Tumor Cell line": {"test_system": "Tumor Cell line", "assay": "Inhibition of colony formation in soft agar of 14 human tumor cell lines", "format": "functional, cell-based"}, "Mus musculus [14]": {"species": "Mus musculus", "assay": "Percent increase in life span of NIH3T3 cell tumor-bearing nude mice", "format": "functional"}, "NIH3T3 [15]": {"test_system": "NIH3T3", "assay": "Activity against H-Ras transformed NIH3T3 fibroblasts in a clonogenic assay", "format": "functional, cell-based", "settings": "Mus musculus"}, "Mus musculus [16]": {"test_system": "Mus musculus", "assay": "Activity against H-Ras-transformed rat-1 tumor cells implanted intraperitoneally in athymic mice", "format": "functional"}, "[17]": {"target": "T1, Protein farnesyltransferase", "assay": "Inhibitory activity against Ras Farnesyltransferase", "format": "protein-complex assay"}, "[18]": {"target": "T1, Protein farnesyltransferase", "assay": "Inhibition of Ras processing in v-Ras-transformed cells", "format": "functional, cell-based"}},
  "data": [
    {"compound": "O=C(N[C@H](Cc1c[nH]cn1)C(=O)N[C@@H](Cc1ccc(OCc2ccccc2)cc1)C(=O)NCCOCc1ccccc1)OCc1ccccc1", "values": [
      {"measurement": "Concentration", "setting": "[1]", "value": 5, "unit": "µM"}
    ]},
    {"compound": "CC(C)=CCC/C(C)=C/CC/C(C)=C/CCP(=O)(O)CP(=O)(O)O", "values": [
      {"measurement": "Concentration", "setting": "[1]", "value": 1, "unit": "µM"},
      {"measurement": "Ki", "setting": "[2]", "value": 830, "unit": "nM"}
    ]},
    {"compound": "CN(C(=O)[C@@H](Cc1cnc[nH]1)NC(=O)OCc1ccccc1)[C@@H](Cc1ccc(OCc2ccccc2)cc1)C(=O)NCCOCc1ccccc1", "values": [
      {"measurement": "IC50", "setting": "[3]", "value": 400, "unit": "nM"}
    ]},
    {"compound": "CC(C)=CCC/C(C)=C/CC/C(C)=C/C(O)P(=O)(O)O", "note": "(stereo not given)", "values": [
      {"measurement": "Concentration", "setting": "[1]", "value": 1, "unit": "µM"},
      {"measurement": "Ki", "setting": "[2]", "value": 5.2, "unit": "nM"}
    ]},
    {"compound": "CC[C@H](C)[C@H](NC[C@@H](NC[C@@H](N)CS)[C@@H](C)CC)C(=O)N[C@@H](CCO)C(=O)O", "values": [
      {"measurement": "IC50", "setting": "[4]", "value": 18, "unit": "nM"},
      {"measurement": "IC50", "setting": "[5]", "value": "> 10000", "unit": "nM"}
    ]},
    {"compound": "COCC[C@@H]1CN(C(=O)c2cccc3ccccc23)CCN1C[C@H](N)CS", "values": [
      {"measurement": "IC75", "setting": "NIH3T3 [6]", "value": 40, "unit": "mg/kg"},
      {"measurement": "IC50", "setting": "[4]", "value": 5, "unit": "nM"},
      {"measurement": "IC50", "setting": "[7]", "value": 10000, "unit": "nM"},
      {"measurement": "IC50", "setting": "[8]", "value": 500, "unit": "nM"}
    ]},
    {"compound": "CSCC[C@H](NC(=O)[C@@H]1Cc2ccccc2CN1C(=O)[C@@H](NCCc1cnc[nH]1)C(C)C)C(=O)O", "values": [
      {"measurement": "IC50", "setting": "[9]", "value": 0.79, "unit": "nM"},
      {"measurement": "IC50", "setting": "NIH3T3 [10]", "value": 3800, "unit": "nM"}
    ]},
    {"compound": "CCC(C)[C@@H](CO[C@@H](Cc1ccccc1)C(=O)N[C@@H](CCS(C)(=O)=O)C(=O)O)NC[C@@H](N)CS", "note": "(stereo not given in full)", "values": [
      {"measurement": "IC50", "setting": "[4]", "value": 240, "unit": "nM"}
    ]},
    {"compound": "CN1C(=O)[C@]23CC4=CC=C[C@H](O)[C@H]4N2C(=O)[C@@]1(CO)SS3", "note": "[GLIOTOXIN]", "values": [
      {"measurement": "IC50", "setting": "[3]", "value": 1100, "unit": "nM"},
      {"measurement": "Concentration", "setting": "[11]", "value": 6.3, "unit": "mg/kg"}
    ]},
    {"compound": "CCCCCCCC/C=C\\CCCCCC/C(C(=O)O)=C(\\C)C(=O)O", "note": "[CHAETOMELLIC ACID B]", "values": [
      {"measurement": "IC50", "setting": "[12]", "value": 190, "unit": "nM"}
    ]},
    {"compound": "COC(=O)C1=CC(CO)=COc2oc3cccc(O)c3c(=O)c21", "note": "[FUSIDIENOL]", "values": [
      {"measurement": "IC50", "setting": "[4]", "value": 1000, "unit": "nM"}
    ]},
    {"compound": "COC1=C(N)C(=O)c2nc(-c3nc(C(=O)O)c(C)c(-c4cccc(OC)c4O)c3N)ccc2C1=O", "values": [
      {"measurement": "IC50", "setting": "[3]", "value": 21000, "unit": "nM"}
    ]},
    {"compound": "CC[C@H](C)[C@@H](CO[C@@H](Cc1ccccc1)C(=O)N[C@@H](CCS(C)(=O)=O)C(=O)OC(C)C)NC[C@@H](N)CS", "values": [
      {"measurement": "Concentration", "setting": "Mus musculus [13]", "value": 40, "unit": "mg/kg"}
    ]},
    {"compound": "COC(=O)[C@H](CCSC)NC(=O)[C@H](/C=C\\[C@@H](/C=C/[C@@H](N)CS)C(C)C)Cc1ccccc1", "values": [
      {"measurement": "IC50", "setting": "Tumor Cell line", "value": 60000, "unit": "nM"}
    ]},
    {"compound": "O=C(CN(Cc1ccc(OCc2ccccc2)cc1)C(=O)[C@H](Cc1c[nH]cn1)NC(=O)OCc1ccccc1)NCCc1ccccc1", "values": [
      {"measurement": "Concentration", "setting": "[1]", "value": 0.1, "unit": "µM"},
      {"measurement": "ILS", "setting": "Mus musculus [14]", "value": 35, "unit": "%"},
      {"measurement": "IC50", "setting": "[3]", "value": 170, "unit": "nM"},
      {"measurement": "IC50", "setting": "NIH3T3 [15]", "value": 4400, "unit": "nM"}
    ]},
    {"compound": "O=C1C=C[C@]23Oc4ccc(O)c5c4[C@](Oc4cccc1c42)(O3)C1OC1C5=O", "note": "(stereo not given in full) [PREUSSOMERIN]", "values": [
      {"measurement": "IC50", "setting": "[4]", "value": 1200, "unit": "nM"}
    ]},
    {"compound": "COC(=O)[C@H](CCSC)NC(=O)[C@@H]1Cc2ccccc2CN1C(=O)[C@@H](NC[C@@H](N)CS)C(C)(C)C", "values": [
      {"measurement": "IC50", "setting": "[9]", "value": 85, "unit": "nM"},
      {"measurement": "IC50", "setting": "[7]", "value": 200, "unit": "nM"},
      {"measurement": "T/C", "setting": "Mus musculus [16]", "value": 154, "unit": "%"}
    ]},
    {"compound": "CC(C)=CCC/C(C)=C/CC/C(C)=C/C(=O)NC(CCC(=O)N[C@H](C(=O)N[C@@H](CC(C)C)C(=O)N[C@@H](CO)C(=O)O)C(C)C)C(=O)O", "note": "(stereo not given in full)", "values": [
      {"measurement": "IC50", "setting": "[17]", "value": 33, "unit": "nM"}
    ]},
    {"compound": "CCC(=O)O[C@H](C[C@@]1(C)[C@H](C)CCC(=O)[C@@H]1C)/C(C)=C/Cc1c(O)cc(C)c(C=O)c1O", "note": "[CYLINDROL A]", "values": [
      {"measurement": "IC50", "setting": "[4]", "value": 2200, "unit": "nM"}
    ]},
    {"compound": "CSCC[C@H](NC(=O)[C@H](Cc1ccccc1)NC[C@@H](NC[C@@H](N)CS)C(C)C)C(=O)O", "values": [
      {"measurement": "IC50", "setting": "[18]", "value": 50000, "unit": "nM"}
    ]},
    {"compound": "CC(C)=CCC/C(C)=C/CC/C(C)=C/CNC(=O)C(COP(=O)(O)O)C(=O)O", "note": "(stereo not given)", "values": [
      {"measurement": "IC50", "setting": "[3]", "value": 83, "unit": "nM"}
    ]},
    {"compound": "CCCCCCCCCCCCCC/C(C(=O)O)=C(\\C)C(=O)O", "note": "[CHAETOMELLIC ACID A]", "values": [
      {"measurement": "IC50", "setting": "[12]", "value": 60, "unit": "nM"}
    ]}
  ]
}
